The values that follow come from PubChem BioAssay AID256 (DTP/NCI, 2004).

The subject of the assay is CD2F1 mice, L1210 leukemia ip, survival T/C. The assay can be described thus: NCI In Vivo Anticancer Drug Screen. Data for tumor model L1210 Leukemia (intraperitoneal) in CD2F1 (CDF1) mice. The following applies: higher = longer survival. The method, then: The antitumor activity of compounds was measured in mice bearing transplantable tumors. Survival or tumor size were measured and the results are expressed as the measurement made in the treated group (T) divided by the measurement made in the vehicle treated control group (C). The tumor model used in this assay is L1210 Leukemia (intraperitoneal) in CD2F1 (CDF1) mice

Where [1] appears, read: endpoint: mean survival time, dose: 100.0 mg/kg/injection, schedule: Q01DX001 (ip), vehicle: saline with Tween-80.
The mark [2] stands for this setting: endpoint: mean survival time, dose: 200.0 mg/kg/injection, schedule: Q01DX001 (ip), vehicle: saline with Tween-80.
Setting [3] is: endpoint: mean survival time, dose: 100.0 mg/kg/injection, schedule: Q01DX009 (ip), vehicle: saline with Tween-80.
Where [4] appears, read: endpoint: mean survival time, dose: 200.0 mg/kg/injection, schedule: Q01DX009 (ip), vehicle: saline with Tween-80.
[5] abbreviates: endpoint: mean survival time, dose: 400.0 mg/kg/injection, schedule: Q01DX009 (ip), vehicle: saline with Tween-80.
Setting [6] is: endpoint: mean survival time, dose: 100.0 mg/kg/injection, schedule: Q04DX003 (ip), vehicle: saline with Tween-80.
The mark [7] stands for this setting: endpoint: mean survival time, dose: 200.0 mg/kg/injection, schedule: Q04DX003 (ip), vehicle: saline with Tween-80.
[8] abbreviates: endpoint: mean survival time, dose: 400.0 mg/kg/injection, schedule: Q04DX003 (ip), vehicle: saline with Tween-80.
The mark [9] stands for this setting: endpoint: mean survival time, dose: 25.0 mg/kg/injection, schedule: Q01DX001 (ip), vehicle: saline with Tween-80.
Where [10] appears, read: endpoint: mean survival time, dose: 50.0 mg/kg/injection, schedule: Q01DX001 (ip), vehicle: saline with Tween-80.
[11] abbreviates: endpoint: mean survival time, dose: 100.0 mg/kg/injection, schedule: Q01DX001 (ip), vehicle: saline.
The mark [12] stands for this setting: endpoint: mean survival time, dose: 200.0 mg/kg/injection, schedule: Q01DX001 (ip), vehicle: saline.
The mark [13] stands for this setting: endpoint: mean survival time, dose: 400.0 mg/kg/injection, schedule: Q01DX001 (ip), vehicle: saline.
The mark [14] stands for this setting: endpoint: mean survival time, dose: 400.0 mg/kg/injection, schedule: Q01DX001 (ip), vehicle: saline with Tween-80.

The structures appear in SMILES notation. Values joined by “and” are separate entries in the source; they are usually repeats but may differ in a detail not shown here. Equal entries are not always repeated. Toxic doses and inconclusive results are not listed.

Regarding `O=C1/C(=C/c2ccc([N+](=O)[O-])cc2)CCc2ccccc21`, the T/C is 97 % of control (endpoint: mean survival time, dose: 12.5 mg/kg/injection, schedule: Q01DX009 (ip), vehicle: Klucel (hydroxypropylcellulose) (HPC)); 96 % of control (endpoint: mean survival time, dose: 25.0 mg/kg/injection, schedule: Q01DX009 (ip), vehicle: Klucel (hydroxypropylcellulose) (HPC)); 94 % of control (endpoint: mean survival time, dose: 50.0 mg/kg/injection, schedule: Q01DX009 (ip), vehicle: Klucel (hydroxypropylcellulose) (HPC)); 92 % of control (endpoint: mean survival time, dose: 100.0 mg/kg/injection, schedule: Q01DX009 (ip), vehicle: Klucel (hydroxypropylcellulose) (HPC)); 91 % of control (endpoint: mean survival time, dose: 200.0 mg/kg/injection, schedule: Q01DX009 (ip), vehicle: Klucel (hydroxypropylcellulose) (HPC)).
Take `S=C(Cc1ccccc1)N1CCOCC1`: the T/C is, setting by setting: under setting [1], 98 % of control; under setting [2], 102 % of control; (endpoint: mean survival time, dose: 300.0 mg/kg/injection, schedule: Q01DX001 (ip), vehicle: saline with Tween-80) 101 % of control.
As for `CSc1nn(C2OC(COC(=O)c3ccccc3)C(OC(=O)c3ccccc3)C2OC(=O)c2ccccc2)c(=O)[nH]c1=O` (stereo unspecified), the T/C by setting is: (endpoint: mean survival time, dose: 12.5 mg/kg/injection, schedule: Q01DX005 (ip), vehicle: distilled water + Tween-80) 98 % of control; (endpoint: mean survival time, dose: 25.0 mg/kg/injection, schedule: Q01DX005 (ip), vehicle: distilled water + Tween-80) 93 % of control; (endpoint: mean survival time, dose: 50.0 mg/kg/injection, schedule: Q01DX005 (ip), vehicle: distilled water + Tween-80) 97 % of control; (endpoint: mean survival time, dose: 100.0 mg/kg/injection, schedule: Q01DX005 (ip), vehicle: distilled water + Tween-80) 93 % of control; (endpoint: mean survival time, dose: 200.0 mg/kg/injection, schedule: Q01DX005 (ip), vehicle: distilled water + Tween-80) 95 % of control.
Turning to `CC(C)CCCC(C)C1CCC2C3CCC4CC5OCC(O)CC5CC4(C)C3CCC12C` (stereo unspecified), the T/C was 96 % of control under setting [3], 100 % of control under setting [4] and 96 % of control under setting [5].
On to `NNC(=O)NO`, for which the T/C is 166 % of control (endpoint: mean survival time, dose: 12.5 mg/kg/injection, schedule: Q01DX009 (ip), vehicle: saline with Tween-80); 162 % of control (endpoint: mean survival time, dose: 25.0 mg/kg/injection, schedule: Q01DX009 (ip), vehicle: saline with Tween-80); 103 % of control (endpoint: mean survival time, dose: 50.0 mg/kg/injection, schedule: Q01DX009 (ip), vehicle: saline with Tween-80); 97 % of control under setting [3]; 87 % of control under setting [4].
As for `Cc1c2cnccc2c(C)c2c1c1ccccc1n2CCO`, the T/C is, setting by setting: under setting [6], 123 % of control; under setting [7], 117 % of control; under setting [5], 170 % of control; under setting [8], 162 % of control.
In the case of `CCN(C)N=Nc1ccc(C(N)=O)cc1`, the T/C is 103 % of control (endpoint: mean survival time, dose: 18.75 mg/kg/injection, schedule: Q01DX009 (ip), vehicle: Klucel (hydroxypropylcellulose) (HPC)); 156 % of control (endpoint: mean survival time, dose: 75.0 mg/kg/injection, schedule: Q01DX009 (ip), vehicle: Klucel (hydroxypropylcellulose) (HPC)); 115 % of control (endpoint: mean survival time, dose: 100.0 mg/kg/injection, schedule: Q01DX009 (oral), vehicle: saline with Tween-80); 120 % of control (endpoint: mean survival time, dose: 200.0 mg/kg/injection, schedule: Q01DX009 (oral), vehicle: saline with Tween-80).
On to `CCC1(c2ccccc2)C(=O)N(Cl)C(=O)N(Cl)C1=O`, for which the T/C under setting [9] is 101 % of control; the T/C under setting [10] is 95 % of control; the T/C under setting [1] is 95 % of control and 100 % of control.
On to `CC/C=C(\C)C=O`, for which the T/C reads like this: under setting [11], 100 % of control; under setting [12], 97 % of control; under setting [13], 97 % of control.
For the molecule `Cc1nc(N)[nH]c(=O)c1CCCNS(=O)(=O)c1ccc(CN)cc1`, the T/C reads like this: under setting [11], 110 % of control; under setting [12], 101 % of control; under setting [13], 100 % of control.
Turning to `CCN(CC)Cc1cc(Nc2c3ccc(Cl)cc3nc3ccc(OC)nc23)ccc1O`, the T/C under setting [9] is 94 % of control; the T/C under setting [10] was 94 % of control; the T/C under setting [1] is 90 % of control; the T/C under setting [2] is 95 % of control; the T/C under setting [14] was 91 % of control.
Take `CNCCN=c1ccc2c3c1c(O)c1c(O)ccc(=O)c1c3[nH]n2CCNCCO`: the T/C was 152 % of control and 207 % of control (endpoint: median survival time, dose: 0.37 mg/kg/injection, schedule: Q01DX009 (ip), vehicle: water); 182 % of control and 195 % of control (endpoint: median survival time, dose: 0.75 mg/kg/injection, schedule: Q01DX009 (ip), vehicle: water); 154 % of control and 195 % of control (endpoint: median survival time, dose: 1.5 mg/kg/injection, schedule: Q01DX009 (ip), vehicle: water); 264 % of control and 280 % of control (endpoint: median survival time, dose: 3.0 mg/kg/injection, schedule: Q01DX009 (ip), vehicle: water); 337 % of control (endpoint: median survival time, dose: 3.12 mg/kg/injection, schedule: Q01DX009 (ip), vehicle: water); 120 % of control and 103 % of control (endpoint: median survival time, dose: 6.0 mg/kg/injection, schedule: Q01DX009 (ip), vehicle: water). In addition, the T/C (endpoint: median survival time, dose: 6.25 mg/kg/injection, schedule: Q01DX009 (ip), vehicle: water) was 120 % of control.
With `COc1ccc2c(c1OC(C)=O)-c1cc(O)cc3c1C(C2)N(C(=O)CN(CCCl)CCCl)CC3` (stereo unspecified), the T/C is, setting by setting: (endpoint: mean survival time, dose: 6.25 mg/kg/injection, schedule: Q04DX003 (ip), vehicle: DMSO) 98 % of control; (endpoint: mean survival time, dose: 12.5 mg/kg/injection, schedule: Q04DX003 (ip), vehicle: DMSO) 91 % of control; (endpoint: mean survival time, dose: 25.0 mg/kg/injection, schedule: Q04DX003 (ip), vehicle: DMSO) 100 % of control; (endpoint: mean survival time, dose: 50.0 mg/kg/injection, schedule: Q04DX003 (ip), vehicle: DMSO) 102 % of control.
As to `COc1cc(C2CNCc3cc(OC)c(OC)cc32)ccc1O` (stereo unspecified), the T/C runs as follows: (endpoint: mean survival time, dose: 75.0 mg/kg/injection, schedule: Q01DX001 (ip), vehicle: saline) 96 % of control; (endpoint: mean survival time, dose: 150.0 mg/kg/injection, schedule: Q01DX001 (ip), vehicle: saline) 104 % of control; (endpoint: mean survival time, dose: 300.0 mg/kg/injection, schedule: Q01DX001 (ip), vehicle: saline) 100 % of control.
With `C/C(=N\Nc1nc2ccccc2s1)c1ccc2c(c1)Sc1ccccc1O2`, the T/C runs as follows: (endpoint: mean survival time, dose: 37.5 mg/kg/injection, schedule: Q01DX009 (ip), vehicle: saline) 92 % of control; (endpoint: mean survival time, dose: 75.0 mg/kg/injection, schedule: Q01DX009 (ip), vehicle: saline) 95 % of control; (endpoint: mean survival time, dose: 150.0 mg/kg/injection, schedule: Q01DX009 (ip), vehicle: saline) 98 % of control.
With `CNCCOC(=O)/C=C/c1ccccc1`, the T/C is 98 % of control (endpoint: mean survival time, dose: 100.0 mg/kg/injection, schedule: Q01DX009 (ip), vehicle: saline); 95 % of control (endpoint: mean survival time, dose: 200.0 mg/kg/injection, schedule: Q01DX009 (ip), vehicle: saline); 95 % of control (endpoint: mean survival time, dose: 400.0 mg/kg/injection, schedule: Q01DX009 (ip), vehicle: saline).
On to `O=C(O)/C=C/C(=O)Nc1ccc(C(=O)O)cc1`, for which the T/C is 94 % of control under setting [1]; 91 % of control under setting [3]; 92 % of control under setting [2]; 96 % of control under setting [4]; 92 % of control under setting [14]; 89 % of control under setting [5].
As for `CC(C)C1OCC(C)(C)C(C)O1` (stereo unspecified), the T/C (endpoint: mean survival time, dose: 50.0 mg/kg/injection, schedule: Q04DX002 (ip), vehicle: saline) is 96 % of control; the T/C (endpoint: mean survival time, dose: 100.0 mg/kg/injection, schedule: Q04DX002 (ip), vehicle: saline) was 96 % of control; the T/C (endpoint: mean survival time, dose: 200.0 mg/kg/injection, schedule: Q04DX002 (ip), vehicle: saline) is 93 % of control.
Turning to `CC(C)CN(CC(C)C)c1ccc([N+](=O)[O-])cc1[N+](=O)[O-]`, the T/C reads like this: under setting [3], 97 % of control; under setting [4], 95 % of control; under setting [5], 94 % of control.
In the case of `Clc1ccc(-c2nnc(-c3ccc(Cl)cc3)nn2)cc1`, the T/C by setting is: under setting [6], 96 % of control; under setting [7], 90 % of control; under setting [8], 88 % of control.
On the same counts, the results for `CN1C=CC(C(C(N)=O)c2ccccc2)c2ccccc21` (stereo unspecified) are 96 % of control, 102 % of control and 97 % of control.
